For 12 compounds, IC50 results are on record in patent US9579314B2 (priority 2015, dated 2017).

One test has as its target Human β2 adrenoceptor (Homo sapiens, UniProt P07550). The settings on record: read-out: B2 binding affinity.
In another test the target is Human M3 receptor (Homo sapiens, UniProt P20309). The settings on record: read-out: M3 binding affinity.
Sequence of Human M3 receptor (P20309 whole entry): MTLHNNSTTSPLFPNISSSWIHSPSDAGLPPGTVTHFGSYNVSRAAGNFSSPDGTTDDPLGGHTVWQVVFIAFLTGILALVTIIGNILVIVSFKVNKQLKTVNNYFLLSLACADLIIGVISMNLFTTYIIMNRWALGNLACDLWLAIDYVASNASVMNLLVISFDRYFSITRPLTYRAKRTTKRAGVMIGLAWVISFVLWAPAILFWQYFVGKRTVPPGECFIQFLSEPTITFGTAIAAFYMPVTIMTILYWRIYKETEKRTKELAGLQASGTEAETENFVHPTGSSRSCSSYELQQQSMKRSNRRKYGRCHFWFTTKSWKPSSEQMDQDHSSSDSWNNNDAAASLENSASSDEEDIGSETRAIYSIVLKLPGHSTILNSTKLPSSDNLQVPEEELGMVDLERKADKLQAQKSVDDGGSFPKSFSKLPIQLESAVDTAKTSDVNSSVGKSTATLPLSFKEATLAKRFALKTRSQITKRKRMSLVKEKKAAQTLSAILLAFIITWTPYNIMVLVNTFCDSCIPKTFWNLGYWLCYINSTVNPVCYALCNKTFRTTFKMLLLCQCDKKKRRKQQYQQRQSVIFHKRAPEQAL

Sequence of Human β2 adrenoceptor (P07550 whole entry): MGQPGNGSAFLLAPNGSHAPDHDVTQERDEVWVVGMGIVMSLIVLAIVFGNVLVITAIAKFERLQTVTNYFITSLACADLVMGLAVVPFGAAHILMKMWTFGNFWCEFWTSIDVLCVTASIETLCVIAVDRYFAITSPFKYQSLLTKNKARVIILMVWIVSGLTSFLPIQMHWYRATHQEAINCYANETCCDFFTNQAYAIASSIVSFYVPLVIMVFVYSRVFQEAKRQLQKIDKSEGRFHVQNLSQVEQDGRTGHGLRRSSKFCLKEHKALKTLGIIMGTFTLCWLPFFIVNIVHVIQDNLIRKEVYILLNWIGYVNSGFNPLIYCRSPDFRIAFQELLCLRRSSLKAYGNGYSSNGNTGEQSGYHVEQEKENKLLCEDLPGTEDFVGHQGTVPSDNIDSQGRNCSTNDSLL

For `O=C(NCCCOc1cccc([C@](O)(C(=O)OCC2CCN(Cc3ccccc3)CC2)c2ccccc2)c1)c1ccc(CNC[C@H](O)c2ccc(O)c3[nH]c(=O)ccc23)cc1Cl` [Compound 32H, (S)-(1-benzylpiperidin-4-yl)methyl 2-(3-(3-(2-chloro-4-((((R)-2-hydroxy-2-(8-hydroxy-2-oxo-1,2-dihydroquinolin-5-yl)ethyl)amino)methyl)benzamido)propoxy)phenyl)-2-hydroxy-2-phenylacetate], the IC50 on Human β2 adrenoceptor was less than 0.3 nM; on Human M3 receptor, 0.3 to 3 nM.
For `O=C(OCC1CCN(Cc2ccccc2)CC1)C(O)(c1ccc(F)cc1)c1cccc(OCCCCCNC[C@H](O)c2ccc(O)c3[nH]c(=O)ccc23)c1` (stereo partly drawn) [Compound 3, (1-benzylpiperidin-4-yl)methyl 2-(4-fluorophenyl)-2-hydroxy-2-(3-((5-(((R)-2-hydroxy-2-(8-hydroxy-2-oxo-1,2-dihydroquinolin-5-yl)ethyl)amino)pentyl)oxy)phenyl)acetate] the same measures were less than 0.3 nM and 0.3 to 3 nM.
The corresponding values for `COc1cc(CNC[C@H](O)c2ccc(O)c3[nH]c(=O)ccc23)ccc1C(=O)N1CCC2(CCN(C(=O)COc3cccc([C@](O)(C(=O)OCC4CCN(Cc5ccccc5)CC4)c4ccccc4)c3)CC2)CC1` [Compound 81, (1-benzylpiperidin-4-yl)methyl (S)-2-hydroxy-2-(3-(2-(9-(4-((((R)-2-hydroxy-2-(8-hydroxy-2-oxo-1,2-dihydroquinolin-5-yl)ethyl)amino)methyl)-2-methoxybenzoyl)-3,9-diazaspiro[5.5]undecan-3-yl)-2-oxoethoxy)phenyl)-2-phenylacetate] are 0.3 to 3 nM and 0.3 to 3 nM.
The corresponding values for `O=C(NCCOc1cccc([C@](O)(C(=O)OCC2CCN(Cc3ccccc3)CC2)c2ccccc2)c1)c1ccc(CCNC[C@H](O)c2ccc(O)c3[nH]c(=O)ccc23)cc1` [Compound 38, (S)-(1-benzylpiperidin-4-yl)methyl 2-hydroxy-2-(3-(2-(4-(2-(((R)-2-hydroxy-2-(8-hydroxy-2-oxo-1,2-dihydroquinolin-5-yl)ethyl)amino)ethyl)benzamido)ethoxy)phenyl)-2-phenylacetate] are less than 0.3 nM and less than 0.3 nM.
In the case of `COc1cc(C(=O)NCCNC(=O)c2ccc(COc3cccc([C@](O)(C(=O)OCC4CCN(Cc5ccccc5)CC4)c4ccccc4)c3)cc2)ccc1CNC[C@H](O)c1ccc(O)c2[nH]c(=O)ccc12` [Compound 126, (1-benzylpiperidin-4-yl)methyl (S)-2-hydroxy-2-(3-((4-((2-(4-((((R)-2-hydroxy-2-(8-hydroxy-2-oxo-1,2-dihydroquinolin-5-yl)ethyl)amino)methyl)-3-methoxybenzamido)ethyl)carbamoyl)benzyl)oxy)phenyl)-2-phenylacetate], the IC50 at Human β2 adrenoceptor and at Human M3 receptor was 0.3 to 3 nM in each case.
`O=C(c1ccc(CCNC[C@H](O)c2ccc(O)c3[nH]c(=O)ccc23)cc1)N1CCN(C(=O)c2ccc(COc3cccc([C@](O)(C(=O)OCC4CCN(Cc5ccccc5)CC4)c4ccccc4)c3)cc2)CC1` [Compound 118, (1-benzylpiperidin-4-yl)methyl (S)-2-hydroxy-2-(3-((4-(4-(4-(2-(((R)-2-hydroxy-2-(8-hydroxy-2-oxo-1,2-dihydroquinolin-5-yl)ethyl)amino)ethyl)benzoyl)piperazine-1-carbonyl)benzyl)oxy)phenyl)-2-phenylacetate]: the results for the IC50 on Human β2 adrenoceptor and on Human M3 receptor were 0.3 to 3 nM and less than 0.3 nM, respectively.
The corresponding values for `O=C(COc1cccc([C@](O)(C(=O)OCC2CCN(Cc3ccccc3)CC2)c2ccccc2)c1)N[C@H]1C[C@H](NC(=O)c2ccc(CNC[C@H](O)c3ccc(O)c4[nH]c(=O)ccc34)cc2F)C1` [Compound 128, (S)-(1-benzylpiperidin-4-yl)methyl 2-(3-(2-(((1R,3S)-3-(2-fluoro-4-((((R)-2-hydroxy-2-(8-hydroxy-2-oxo-1,2-dihydroquinolin-5-yl)ethyl)amino)methyl)benzamido)cyclobutyl)amino)-2-oxoethoxy)phenyl)-2-hydroxy-2-phenylacetate] are less than 0.3 nM and 0.3 to 3 nM.
The corresponding values for `O=C(NC1CCN(C(=O)COc2cccc([C@](O)(C(=O)OCC3CCN(Cc4ccccc4)CC3)c3ccccc3)c2)CC1)c1ccc(CNC[C@H](O)c2ccc(O)c3[nH]c(=O)ccc23)cc1` [Compound 59, (1-benzylpiperidin-4-yl)methyl (S)-2-hydroxy-2-(3-(2-(4-(4-((((R)-2-hydroxy-2-(8-hydroxy-2-oxo-1,2-dihydroquinolin-5-yl)ethyl)amino)methyl)benzamido)piperidin-1-yl)-2-oxoethoxy)phenyl)-2-phenylacetate] are less than 0.3 nM and 0.3 to 3 nM.
For `COc1cc(C(=O)N2CCC3(CCN(C(=O)COc4cccc([C@](O)(C(=O)OCC5CCN(Cc6ccccc6)CC5)c5ccccc5)c4)CC3)CC2)ccc1CNC[C@H](O)c1ccc(O)c2[nH]c(=O)ccc12` [Compound 79, (1-benzylpiperidin-4-yl)methyl (S)-2-hydroxy-2-(3-(2-(9-(4-((((R)-2-hydroxy-2-(8-hydroxy-2-oxo-1,2-dihydroquinolin-5-yl)ethyl)amino)methyl)-3-methoxybenzoyl)-3,9-diazaspiro[5.5]undecan-3-yl)-2-oxoethoxy)phenyl)-2-phenylacetate] the same measures were less than 0.3 nM and less than 0.3 nM.
On to `O=C(COc1cccc([C@](O)(C(=O)OCC2CCN(Cc3ccccc3)CC2)c2ccccc2)c1)N[C@H]1CC[C@H](NC(=O)c2ccc(CCNC[C@H](O)c3ccc(O)c4[nH]c(=O)ccc34)cc2)CC1` [Compound 90, (1-benzylpiperidin-4-yl)methyl (S)-2-hydroxy-2-(3-(2-(((1R,4S)-4-(4-(2-(((R)-2-hydroxy-2-(8-hydroxy-2-oxo-1,2-dihydroquinolin-5-yl)ethyl)amino)ethyl)benzamido)cyclohexyl)amino)-2-oxoethoxy)phenyl)-2-phenylacetate], for which the IC50 at Human β2 adrenoceptor and on Human M3 receptor was 0.3 to 3 nM in each case.
With `O=C(COc1cccc([C@](O)(C(=O)OCC2CCN(Cc3ccccc3)CC2)c2ccccc2)c1)N1CC2(CCCN(C(=O)c3ccc(CCNC[C@H](O)c4ccc(O)c5[nH]c(=O)ccc45)cc3)C2)C1` [Compound 98, (1-benzylpiperidin-4-yl)methyl (S)-2-hydroxy-2-(3-(2-(6-(4-(2-(((R)-2-hydroxy-2-(8-hydroxy-2-oxo-1,2-dihydroquinolin-5-yl)ethyl)amino)ethyl)benzoyl)-2,6-diazaspiro[3.5]nonan-2-yl)-2-oxoethoxy)phenyl)-2-phenylacetate], the IC50 on Human β2 adrenoceptor and at Human M3 receptor was 0.3 to 3 nM throughout.
`O=C(COc1cccc([C@](O)(C(=O)OCC2CCN(Cc3ccccc3)CC2)c2ccccc2)c1)NC1CCN(C(=O)c2ccc(CNC[C@H](O)c3ccc(O)c4[nH]c(=O)ccc34)cc2)CC1` [Compound 65, (1-benzylpiperidin-4-yl)methyl (S)-2-hydroxy-2-(3-(2-((1-(4-((((R)-2-hydroxy-2-(8-hydroxy-2-oxo-1,2-dihydroquinolin-5-yl)ethyl)amino)methyl)benzoyl)piperidin-4-yl)amino)-2-oxoethoxy)phenyl)-2-phenylacetate]: the IC50 at Human β2 adrenoceptor was 0.3 to 3 nM; on Human M3 receptor, less than 0.3 nM.
